The values that follow are results of earlier work, collected in US20160089391A1, “Molecular Targets for Cardiovascular Disease” (Temple University-of the Commonwealth System of Higher …, priority 2014, published 2016).

This series relates to calpain. Conditions: mouse microvascular endothelial cells (Smolock et al., 2011); cited from earlier work.

As for `CN(C)CCCn1cc(C2=C(c3c[nH]c4ccccc34)C(=O)NC2=O)c2ccccc21` [BIM-1], the calpain activity result is listed as “decreased”.
